Experiments:
Format in all cases: biochemical
[1] = test system: fibrin polymerization; assay: Clot strength (viscosity) in triggered platelet-poor plasma on rotary rheometer with Doolittle peptide; conditions: 0.5 mM up to 2 mM peptide, shear rate 300/s, 5 pM TF, 4 μM PL, FIG. 6 upper panel
Method: (§1) Blood was obtained through venipuncture (1 volume tri-sodium citrate 0.13M to 9 volumes blood). Free flow or minimal suction should be employed, and vacuum containers avoided. Platelet poor plasma (PPP) was obtained by centrifugation of blood twice at 2630 g for 10 min.
(§2) Recombinant relipidated tissue factor (rTF) not containing polybrene or Ca^++ was from Dade Behring (Marburg, Germany). For each experiment, a fresh mixture of Tissue Factor (TF) and phospholipids vesicles (PL) (Avanti, Alabaster, Ala., USA) was prepared, resulting in a final concentration of 5 pM TF and 4 μM PL in Hepes buffer (20 mM, pH 7.35) containing 5 mg/l BSA (Sigma, A-7030). Recombinant tissue plasminogen activator (tPA) was obtained from Boehringer Ingelheim GmbH, Germany as actylase™. […] Upon splitting by thrombin, it releases the fluorescent rhodamine (Rho), which is measured by a 470 nm excitation and a 520 emission filter set. […] The by plasmin released fluorescent 7-Amino-4-methylcoumarin (AMC) is measured by a 365 nm excitation and a 430 nm emission filter set. […]
(§3) Using a signal substrate with a fluorescent leaving group, thrombin generation was measured via a fluorescence detector. The strength of the formed fibrin clot was monitored by an oscillating or rotating measuring system of a specially designed rheometer (Physica MCR 301, Anton Paar Germany GmbH, Ostfildern). […]

[2] = test system: thrombin generation; assay: Thrombin generation (fluorogenic substrate, calibrated) in triggered platelet-poor plasma with Doolittle peptide; conditions: 0.5 mM up to 2 mM peptide, shear rate 300/s, FIG. 6 lower panel
Method: as §1
as §2, with “A-7030).” for “A-7030). Recombinant tissue plasminogen activator (tPA) was obtained from Boehringer Ingelheim GmbH, Germany as actylase™.”
The calibrator, α2M-Thrombin complex (α2MT), was prepared in house as previously described. The concentration of α2M-Thrombin is measured by its ability to hydrolyze the chromogenic substrate S2238. […] After adding bovine antithrombin and heparin (LEO) this material was ready for use as a thrombin calibrator.
Using a signal substrate with a fluorescent leaving group, thrombin generation was measured via a fluorescence detector. […]

[3] = test system: fibrinolysis; assay: Clot strength (torque, oscillation mode) in triggered whole blood with tPA; conditions: 300 U/ml tPA, oscillation 10 Hz, angle 1°, inset
Method: as §1, §2, §3

[4] = test system: fibrin; assay: Clot strength (viscosity) in tPA-triggered platelet-poor plasma on rotary rheometer; conditions: 100 U/ml tPA, rotation 300/s, FIG. 8 lower panel
Method: as §1, §2, §3

[5] = target: T1, plasmin (Homo sapiens, UniProt P00747); assay: Plasmin generation (raw fluorescence, H-Ala-Leu-Lys-AMC) in tPA-triggered platelet-poor plasma; conditions: 100 U/ml tPA, rotation 300/s, FIG. 8 upper panel
T1 construct: from tissue; host or cells: platelet-poor plasma from citrated blood
T1 sequence (P00747 581-810 limits assumed): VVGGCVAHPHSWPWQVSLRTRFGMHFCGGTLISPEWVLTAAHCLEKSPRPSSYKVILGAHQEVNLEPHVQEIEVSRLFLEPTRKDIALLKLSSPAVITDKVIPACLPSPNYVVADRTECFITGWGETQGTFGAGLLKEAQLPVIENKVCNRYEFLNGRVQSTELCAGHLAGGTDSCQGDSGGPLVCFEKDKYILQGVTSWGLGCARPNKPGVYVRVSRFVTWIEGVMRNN
T1 sequence (P00747 97-580 partner limits assumed): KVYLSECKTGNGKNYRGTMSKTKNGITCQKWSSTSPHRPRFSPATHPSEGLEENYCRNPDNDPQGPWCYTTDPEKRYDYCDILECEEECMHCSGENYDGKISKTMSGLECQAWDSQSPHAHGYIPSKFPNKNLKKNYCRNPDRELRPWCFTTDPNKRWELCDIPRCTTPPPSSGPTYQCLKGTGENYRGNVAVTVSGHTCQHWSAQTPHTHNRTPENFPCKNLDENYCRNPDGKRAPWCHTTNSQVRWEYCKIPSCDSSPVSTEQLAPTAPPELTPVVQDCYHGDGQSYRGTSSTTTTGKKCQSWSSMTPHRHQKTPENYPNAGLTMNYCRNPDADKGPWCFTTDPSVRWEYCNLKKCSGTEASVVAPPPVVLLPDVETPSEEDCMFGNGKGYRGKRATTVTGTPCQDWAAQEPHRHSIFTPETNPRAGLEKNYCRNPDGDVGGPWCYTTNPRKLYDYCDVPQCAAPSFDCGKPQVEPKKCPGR
Method: as §1
as §2, with “A-7030).” for “A-7030). Recombinant tissue plasminogen activator (tPA) was obtained from Boehringer Ingelheim GmbH, Germany as actylase™.”
A total of 700 μl (in case of plasma) or 800 μl (in case of blood) sample and substrate was added on the thermostated sample holder at 37° C. of the rheometer. […] Immediately after addition of the FluCa, the viscosity (or Torque in case of oscillation of the measuring system) and fluorescence were measured every 10 seconds and every second at 470/520 nm respectively. […]

“Gly-Pro-Arg-Pro (GPRP; printed: Gly-Pro-Arg-Pro) [Doolittle peptide]” was tested, and the “viscosity of the sample compared to the control sample” value [1] was “significantly decreased the viscosity” and the “effect on the thrombin generation” value [2] was “minimal”.
In the case of “tPA: Recombinant tissue plasminogen activator (tPA) obtained from Boehringer Ingelheim GmbH as actylase™”, the “fibrinolysis (torque)” value [3] is reported as “fibrinolysis could be followed”, the “viscosity (degradation of fibrin)” value [4] is reported as “decrease in viscosity” and the “plasmin generation (raw fluorescence)” value [5] is reported as “activation of plasmin”.
